What follows are compounds tested on androgen receptor (AR) in LNCaP and/or VCaP cells (assay: Androgen Receptor ELISA assay (AR degradation)). Conditions: LNCaP and/or VCaP cells; 5 hours incubation; media with R1881; read-out: DC50 Code* (degradation of AR ELISA).
Format: cell-based
Outline: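 VCaP cells grown ≥3 days, then treated 5 h with compound in media containing 1 nM R1881 (10× stock). Cells lysed and AR quantified by sandwich ELISA (mouse AR detection Ab, HRP anti-mouse, TMB). DC50 and Dmax derived from AR degradation.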

DC50 | SMILES
> 100 nM | COc1cc(O[C@H]2C[C@H](N(CC3CCN(c4ncc(C(=O)NC5CC6CN(Cc7cc(C)c(C#N)c(C)c7)CC6C5)cn4)CC3)C(C)C)C2)cc2c1C(=O)N(C1CCC(=O)NC1=O)C2=O (stereo partly shown) [Compound 3, N-(2-(4-cyano-3,5-dimethylbenzyl)octahydrocyclopenta [c]pyrrol-5-yl)-2-(4-((((1r,3r)-3-((2-(2,6-dioxopiperidin-3-yl)-7-methoxy-1,3-dioxoisoindolin-5-yl)oxy)cyclobutyl) (isopropyl)amino)methyl)piperidin-1-yl)pyrimidine-5-carboxamide]

Same assay, conditions: degradation of AR ELISA in LNCaP and/or VCaP cells; Table 2C; read-out: DC50 Code*

DC50 | SMILES
< 1 nM | Cc1cc(O[C@H]2C(C)(C)[C@H](NC(=O)c3cnc(N4CCC(CN(CCN5CCOCC5)[C@H]5C[C@H](Oc6ccc7c(c6)C(=O)N(C6CCC(=O)NC6=O)C7=O)C5)CC4)cn3)C2(C)C)cc(C)c1C#N (stereo partly shown) [compound 230, N-((1r,3r)-3-(4-cyano-3,5-dimethylphenoxy)-2,2,4,4-tetramethylcyclobutyl)-5-(4-((((1r,3r)-3-((2-(2,6-dioxopiperidin-3-yl)-1,3-dioxoisoindolin-5-yl)oxy)cyclobutyl)(2-morpholinoethyl)amino)methyl)piperidin-1-yl)pyrazine-2-carboxamide]
< 1 nM | CC(C)N(CC1CCN(c2ncc(C(=O)N[C@H]3C(C)(C)[C@H](Oc4ccc(C#N)c(Cl)c4)C3(C)C)cn2)CC1)[C@H]1C[C@H](Oc2ccc3c(c2)CN(C2CCC(=O)NC2=O)C3=O)C1 (stereo partly shown) [compound 80, N-((1r,3r)-3-(3-chloro-4-cyanophenoxy)-2,2,4,4-tetramethylcyclobutyl)-2-(4-((((1r,3r)-3-((2-(2,6-dioxopiperidin-3-yl)-1-oxoisoindolin-5-yl)oxy)cyclobutyl) (isopropyl)amino)methyl)piperidin-1-yl)pyrimidine-5-carboxamide]
< 1 nM | COCCOCCOCCN(CC1CCN(c2ncc(C(=O)N[C@H]3C(C)(C)[C@H](Oc4cc(C)c(C#N)c(C)c4)C3(C)C)cn2)CC1)[C@H]1C[C@H](Oc2ccc3c(c2)C(=O)N(C2CCC(=O)NC2=O)C3=O)C1 (stereo partly shown) [compound 144, N-((1r,3r)-3-(4-cyano-3,5-dimethylphenoxy)-2,2,4,4-tetramethylcyclobutyl)-2-(4-(2-((1r,3r)-3-((2-(2,6-dioxopiperidin-3-yl)-1,3-dioxoisoindolin-5-yl)oxy)cyclobutyl)-5,8,11-trioxa-2-azadodecyl)piperidin-1-yl)pyrimidine-5-carboxamide]
< 1 nM | CCN(CC1CCN(c2ncc(C(=O)N[C@H]3C(C)(C)[C@H](Oc4cc(C)c(C#N)c(C)c4)C3(C)C)cn2)CC1)[C@H]1C[C@H](Oc2ccc3c(c2)C(=O)N(C2CCC(=O)NC2=O)C3=O)C1 (stereo partly shown) [compound 83, N-((1r,3r)-3-(4-cyano-3,5-dimethylphenoxy)-2,2,4,4-tetramethylcyclobutyl)-2-(4-((((1r,3r)-3-((2-(2,6-dioxopiperidin-3-yl)-1,3-dioxoisoindolin-5-yl)oxy)cyclobutyl)(ethyl)amino)methyl)piperidin-1-yl)pyrimidine-5-carboxamide]
< 1 nM | COCCN(CC1CCN(c2ncc(C(=O)N[C@H]3C(C)(C)[C@H](Oc4cc(C)c(C#N)c(C)c4)C3(C)C)cn2)CC1)[C@H]1C[C@H](Oc2ccc3c(c2)C(=O)N(C2CCC(=O)NC2=O)C3=O)C1 (stereo partly shown) [compound 91, N-((1r,3r)-3-(4-cyano-3,5-dimethylphenoxy)-2,2,4,4-tetramethylcyclobutyl)-2-(4-((((1r,3r)-3-((2-(2,6-dioxopiperidin-3-yl)-1,3-dioxoisoindolin-5-yl)oxy)cyclobutyl)(2-methoxyethyl)amino)methyl)piperidin-1-yl)pyrimidine-5-carboxamide]

Second part, the compound before the results:

SMILES | DC50
COCCN(CC1CCN(c2ccc(C(=O)NC3C(C)(C)C(Oc4ccc(C#N)c(OC)c4)C3(C)C)cc2)CC1)C1CC(Oc2ccc3c(c2)C(=O)N([C@@H]2CCC(=O)NC2=O)C3=O)C1 (stereo partly shown) [compound 101, N-((1r,3r)-3-(4-cyano-3-methoxyphenoxy)-2,2,4,4-tetramethylcyclobutyl)-4-(4-((((1r,3r)-3-((2-(2,6-dioxopiperidin-3-yl)-1,3-dioxoisoindolin-5-yl)oxy)cyclobutyl)(2-methoxyethyl)amino)methyl)piperidin-1-yl)benzamide] | < 1 nM
COc1cc(O[C@H]2C(C)(C)[C@H](NC(=O)c3ccc(N4CC5(CC(CN(C(C)C)[C@H]6C[C@H](Oc7ccc8c(c7)C(=O)N(C7CCC(=O)NC7=O)C8=O)C6)C5)C4)cc3)C2(C)C)ccc1C#N (mixture of isomers) [compound 216, rac-N-((1r,3r)-3-(4-cyano-3-methoxyphenoxy)-2,2,4,4-tetramethylcyclobutyl)-4-(6-((((1r,3r)-3-((2-(2,6-dioxopiperidin-3-yl)-1,3-dioxoisoindolin-5-yl)oxy)cyclobutyl) (isopropyl)amino)methyl)-2-azaspiro[3.3]heptan-2-yl)benzamide] | < 1 nM
COc1cc(O[C@H]2C[C@H](N(CC3CCN(c4ncc(C(=O)N[C@H]5C(C)(C)[C@H](Oc6cc(C)c(C#N)c(C)c6)C5(C)C)cn4)CC3)CC(F)(F)F)C2)cc2c1C(=O)N(C1CCC(=O)NC1=O)C2=O (stereo partly shown) [compound 179, N-((1r,3r)-3-(4-cyano-3,5-dimethylphenoxy)-2,2,4,4-tetramethylcyclobutyl)-2-(4-((((1r,3r)-3-((2-(2,6-dioxopiperidin-3-yl)-7-methoxy-1,3-dioxoisoindolin-5-yl)oxy)cyclobutyl)(2,2,2-trifluoroethyl)amino)methyl)piperidin-1-yl)pyrimidine-5-carboxamide] | < 1 nM
Cc1cc(O[C@H]2C(C)(C)[C@H](NC(=O)c3ccc(CN4CCOC[C@@H]4CN4CCN(c5ccc6c(c5)C(=O)N(C5CCC(=O)NC5=O)C6=O)CC4)cc3)C2(C)C)cc(C)c1C#N (stereo partly drawn) [compound 196, N-((1r,3S)-3-(4-cyano-3,5-dimethylphenoxy)-2,2,4,4-tetramethylcyclobutyl)-4-(((3S)-3-((4-(2-(2,6-dioxopiperidin-3-yl)-1,3-dioxoisoindolin-5-yl)piperazin-1-yl)methyl)morpholino)methyl)benzamide] | < 1 nM
COc1cc(O[C@H]2C[C@H](N3CCOC4(CCN(c5ccc(C(=O)N[C@H]6C(C)(C)[C@H](Oc7cc(C)c(C#N)c(C)c7)C6(C)C)cc5)CC4)C3)C2)cc2c1C(=O)N(C1CCC(=O)NC1=O)C2=O (mixture of isomers) [compound 220, rac-N-((1r,3r)-3-(4-cyano-3,5-dimethylphenoxy)-2,2,4,4-tetramethylcyclobutyl)-4-(4-((1r,3r)-3-((2-(2,6-dioxopiperidin-3-yl)-7-methoxy-1,3-dioxoisoindolin-5-yl)oxy)cyclobutyl)-1-oxa-4,9-diazaspiro[5.5]undecan-9-yl)benzamide] | < 1 nM
COc1cc(O[C@H]2C(C)(C)[C@H](NC(=O)c3cnc(N4CCC(CN(CCN5CCOCC5)[C@H]5C[C@H](Oc6ccc7c(c6)C(=O)N(C6CCC(=O)NC6=O)C7=O)C5)CC4)cn3)C2(C)C)ccc1C#N (stereo partly shown) [compound 209, N-((1r,3r)-3-(4-cyano-3-methoxyphenoxy)-2,2,4,4-tetramethylcyclobutyl)-5-(4-((((1r,3r)-3-((2-(2,6-dioxopiperidin-3-yl)-1,3-dioxoisoindolin-5-yl)oxy)cyclobutyl)(2-morpholinoethyl)amino)methyl)piperidin-1-yl)pyrazine-2-carboxamide] | < 1 nM
COCCN(CC1CCN(c2ccc(C(=O)N[C@H]3C(C)(C)[C@H](Oc4ccc(C#N)c(OC)c4)C3(C)C)cc2)CC1)[C@H]1C[C@H](Oc2cc(OC)c3c(c2)C(=O)N(C2CCC(=O)NC2=O)C3=O)C1 (stereo partly shown) [compound 94, N-((1r,3r)-3-(4-cyano-3-methoxyphenoxy)-2,2,4,4-tetramethylcyclobutyl)-4-(4-((((1r,3r)-3-((2-(2,6-dioxopiperidin-3-yl)-7-methoxy-1,3-dioxoisoindolin-5-yl)oxy)cyclobutyl)(2-methoxyethyl)amino)methyl)piperidin-1-yl)benzamide] | < 1 nM
COc1cc(O[C@H]2C[C@H](N(CCN3CCOCC3)CC3CCN(c4cnc(C(=O)N[C@H]5C(C)(C)[C@H](Oc6cc(C)c(C#N)c(C)c6)C5(C)C)cn4)CC3)C2)cc2c1C(=O)N(C1CCC(=O)NC1=O)C2=O (stereo partly shown) [compound 210, N-((1r,3r)-3-(4-cyano-3,5-dimethylphenoxy)-2,2,4,4-tetramethylcyclobutyl)-5-(4-((((1r,3r)-3-((2-(2,6-dioxopiperidin-3-yl)-7-methoxy-1,3-dioxoisoindolin-5-yl)oxy)cyclobutyl)(2-morpholinoethyl)amino)methyl)piperidin-1-yl)pyrazine-2-carboxamide] | < 1 nM
Cc1cc(O[C@H]2C(C)(C)[C@H](NC(=O)c3cnc(N4CCC(CN(CCN5CCOCC5)[C@H]5C[C@H](Oc6ccc7c(c6)C(=O)N(C6CCC(=O)NC6=O)C7=O)C5)CC4)nc3)C2(C)C)cc(C)c1C#N (stereo partly shown) [compound 90, N-((1r,3r)-3-(4-cyano-3,5-dimethylphenoxy)-2,2,4,4-tetramethylcyclobutyl)-2-(4-((((1r,3r)-3-((2-(2,6-dioxopiperidin-3-yl)-1,3-dioxoisoindolin-5-yl)oxy)cyclobutyl)(2-morpholinoethyl)amino)methyl)piperidin-1-yl)pyrimidine-5-carboxamide] | < 1 nM

Same assay, conditions: degradation of AR ELISA in LNCaP and/or VCaP cells; read-out: DC50 Code*

DC50 | SMILES
1 to 10 nM | COCCN(CC1CCN(c2cnc(C(=O)N[C@H]3C(C)(C)[C@H](Oc4ccc(C#N)c(Cl)c4)C3(C)C)cn2)CC1)[C@H]1C[C@H](Oc2ccc3c(c2)C(=O)N(C2CCC(=O)NC2=O)C3=O)C1 (stereo partly shown) [compound 239, N-((1r,3r)-3-(3-chloro-4-cyanophenoxy)-2,2,4,4-tetramethylcyclobutyl)-5-(4-((((1r,3r)-3-((2-(2,6-dioxopiperidin-3-yl)-1,3-dioxoisoindolin-5-yl)oxy)cyclobutyl)(2-methoxyethyl)amino)methyl)piperidin-1-yl)pyrazine-2-carboxamide]
